Results from US9302999B2, “Substituted triazoles as herbicides” (E. I. DU PONT DE NEMOURS AND COMPANY, priority 2012, dated 2016).
Like-named read-outs stand apart in the source and are kept apart here.

Columns and labels:
Assay type in all cases: in vivo
[1] = test system: barnyardgrass (Echinochloa crus-galli); assay: Test A pre-/postemergence: barnyardgrass; conditions: for pest or weed control at 125 g/ha / pest or weed control at 500 g/ha: Echinochloa crus-galli, 240 h
Excerpt: (§1) Seeds of barnyardgrass (Echinochloa crus-galli), crabgrass, large (large crabgrass, Digitaria sanguinalis), foxtail, giant (giant foxtail, Setaria faberii), morningglory (Ipomoea spp.), pigweed (Amaranthus retroflexus), velvetleaf (Abutilon theophrasti), wheat (Triticum aestivum), and corn (Zea mays) were planted into a blend of loam soil and sand and treated preemergence with a directed soil spray using test chemicals formulated in a non-phytotoxic solvent mixture which included a surfactant. At the same time these species were also treated with postemergence applications of test chemicals formulated in the same manner.
(§2) Plants ranged in height from two to ten cm and were in the one- to two-leaf stage for the postemergence treatment. Treated plants and untreated controls were maintained in a greenhouse for approximately ten days, after which time all treated plants were compared to untreated controls and visually evaluated for injury. Plant response ratings, summarized in Table A, are based on a 0 to 100 scale where 0 is no effect and 100 is complete control. A dash (-) response means no test result.

[2] = test system: crabgrass, large (large crabgrass, Digitaria sanguinalis); assay: Test A pre-/postemergence: crabgrass, large; conditions: for pest or weed control at 125 g/ha / pest or weed control at 500 g/ha: Digitaria sanguinalis, 240 h
Excerpt: as §1, §2

[3] = test system: morningglory (Ipomoea spp.); assay: Test A pre-/postemergence: morningglory; conditions: for pest or weed control at 125 g/ha / pest or weed control at 500 g/ha: Ipomoea, 240 h
Excerpt: as §1, §2

[4] = test system: wheat (Triticum aestivum); assay: Test A pre-/postemergence: wheat; conditions: for plant injury at 125 g/ha / plant injury at 500 g/ha: Triticum aestivum, 240 h
How it was run: (§3)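 Injury is scored visually on a scale where 0 means no effect and 100 complete control, comparing treated with untreated plants after approximately ten greenhouse days. Both preemergence and postemergence applications are made at the same time.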

[5] = test system: pigweed (Amaranthus retroflexus); assay: Test A pre-/postemergence: pigweed; conditions: for pest or weed control at 125 g/ha / pest or weed control at 500 g/ha: Amaranthus retroflexus, 240 h
How it was run: as §3

[6] = test system: foxtail, giant (giant foxtail, Setaria faberii); assay: Test A pre-/postemergence: foxtail, giant; conditions: for pest or weed control at 125 g/ha / pest or weed control at 500 g/ha: Setaria faberi, 240 h
Excerpt: as §1, §2

[7] = test system: velvetleaf (Abutilon theophrasti); assay: Test A pre-/postemergence: velvetleaf; conditions: for pest or weed control at 125 g/ha / pest or weed control at 500 g/ha: Abutilon theophrasti, 240 h
How it was run: as §3

corn (Zea mays) = assay: Test A pre-/postemergence: corn
Excerpt: as §1, §2

[8] = Postemergence, 125 g ai/ha, 0 to 100 scale, 0 is no effect, 100 is complete control
[9] = Postemergence, 500 g ai/ha, visual rating on 0 to 100 scale (0 no effect, 100 complete control), approximately ten days
[10] = Preemergence, 125 g ai/ha, 0 to 100 scale where 0 is no effect and 100 is complete control
[11] = Preemergence, 500 g ai/ha, 0 to 100 scale (0 no effect, 100 complete control)

OCc1nn(-c2ccc(C(F)(F)F)cc2)nc1Oc1cccc(OC(F)(F)F)c1 [Compound 114, 5-[3-(trifluoromethoxy)phenoxy]-2-[4-(trifluoromethyl)phenyl]-2H-1,2,3-triazole-4-methanol]
pest or weed control at 125 g/ha ([1]; post-emergence, Postemergence, 125 g ai/ha, 0 to 100 scale, 0 is no effect, 100 is complete control, read-out: Barnyardgrass plant response rating): 30% | pest or weed control at 500 g/ha ([1]; post-emergence, Postemergence, 500 g ai/ha, visual rating on 0 to 100 scale (0 no effect, 100 complete control), approximately ten days, read-out: Barnyardgrass plant response rating): 30% | pest or weed control at 125 g/ha ([1]; pre-emergence, Preemergence, 125 g ai/ha, 0 to 100 scale where 0 is no effect and 100 is complete control, read-out: Plant response rating, Barnyardgrass): 0% | pest or weed control at 500 g/ha ([1]; pre-emergence, Preemergence, 500 g ai/ha, 0 to 100 scale (0 no effect, 100 complete control), read-out: Plant response rating, Barnyardgrass): 0% | pest or weed control at 125 g/ha ([2]; post-emergence, Postemergence, 125 g ai/ha, 0 to 100 scale, 0 is no effect, 100 is complete control, read-out: Crabgrass, Large plant response rating): 30% | pest or weed control at 500 g/ha ([2]; post-emergence, Postemergence, 500 g ai/ha, visual rating on 0 to 100 scale (0 no effect, 100 complete control), approximately ten days, read-out: Crabgrass, Large plant response rating): 70% | pest or weed control at 125 g/ha ([2]; pre-emergence, Preemergence, 125 g ai/ha, 0 to 100 scale where 0 is no effect and 100 is complete control, read-out: Plant response rating, Crabgrass, Large): 0% | pest or weed control at 500 g/ha ([2]; pre-emergence, Preemergence, 500 g ai/ha, 0 to 100 scale (0 no effect, 100 complete control), read-out: Plant response rating, Crabgrass, Large): 30% | pest or weed control at 125 g/ha ([3]; post-emergence, Postemergence, 125 g ai/ha, 0 to 100 scale, 0 is no effect, 100 is complete control, read-out: Morningglory plant response rating): 60% | pest or weed control at 500 g/ha ([3]; post-emergence, Postemergence, 500 g ai/ha, visual rating on 0 to 100 scale (0 no effect, 100 complete control), approximately ten days, read-out: Morningglory plant response rating): 90% | pest or weed control at 125 g/ha ([3]; pre-emergence, Preemergence, 125 g ai/ha, 0 to 100 scale where 0 is no effect and 100 is complete control, read-out: Plant response rating, Morningglory): 10% | pest or weed control at 500 g/ha ([3]; pre-emergence, Preemergence, 500 g ai/ha, 0 to 100 scale (0 no effect, 100 complete control), read-out: Plant response rating, Morningglory): 30% | plant injury at 125 g/ha ([4]; post-emergence, Postemergence, 125 g ai/ha, 0 to 100 scale, 0 is no effect, 100 is complete control, read-out: Wheat plant response rating): 10% | plant injury at 500 g/ha ([4]; post-emergence, Postemergence, 500 g ai/ha, visual rating on 0 to 100 scale (0 no effect, 100 complete control), approximately ten days, read-out: Wheat plant response rating): 30% | plant injury at 125 g/ha ([4]; pre-emergence, Preemergence, 125 g ai/ha, 0 to 100 scale where 0 is no effect and 100 is complete control, read-out: Plant response rating, Wheat): 0% | plant injury at 500 g/ha ([4]; pre-emergence, Preemergence, 500 g ai/ha, 0 to 100 scale (0 no effect, 100 complete control), read-out: Plant response rating, Wheat): 0% | pest or weed control at 125 g/ha ([5]; post-emergence, Postemergence, 125 g ai/ha, 0 to 100 scale, 0 is no effect, 100 is complete control, read-out: Pigweed plant response rating): 80% | pest or weed control at 500 g/ha ([5]; post-emergence, Postemergence, 500 g ai/ha, visual rating on 0 to 100 scale (0 no effect, 100 complete control), approximately ten days, read-out: Pigweed plant response rating): 90% | pest or weed control at 125 g/ha ([5]; pre-emergence, Preemergence, 125 g ai/ha, 0 to 100 scale where 0 is no effect and 100 is complete control, read-out: Plant response rating, Pigweed): 0% | pest or weed control at 500 g/ha ([5]; pre-emergence, Preemergence, 500 g ai/ha, 0 to 100 scale (0 no effect, 100 complete control), read-out: Plant response rating, Pigweed): 10% | pest or weed control at 125 g/ha ([6]; post-emergence, Postemergence, 125 g ai/ha, 0 to 100 scale, 0 is no effect, 100 is complete control, read-out: Foxtail, Giant plant response rating): 30% | pest or weed control at 500 g/ha ([6]; post-emergence, Postemergence, 500 g ai/ha, visual rating on 0 to 100 scale (0 no effect, 100 complete control), approximately ten days, read-out: Foxtail, Giant plant response rating): 40% | pest or weed control at 125 g/ha ([6]; pre-emergence, Preemergence, 125 g ai/ha, 0 to 100 scale where 0 is no effect and 100 is complete control, read-out: Plant response rating, Foxtail, Giant): 0% | pest or weed control at 500 g/ha ([6]; pre-emergence, Preemergence, 500 g ai/ha, 0 to 100 scale (0 no effect, 100 complete control), read-out: Plant response rating, Foxtail, Giant): 10% | pest or weed control at 125 g/ha ([7]; post-emergence, Postemergence, 125 g ai/ha, 0 to 100 scale, 0 is no effect, 100 is complete control, read-out: Velvetleaf plant response rating): 30% | pest or weed control at 500 g/ha ([7]; post-emergence, Postemergence, 500 g ai/ha, visual rating on 0 to 100 scale (0 no effect, 100 complete control), approximately ten days, read-out: Velvetleaf plant response rating): 50% | pest or weed control at 125 g/ha ([7]; pre-emergence, Preemergence, 125 g ai/ha, 0 to 100 scale where 0 is no effect and 100 is complete control, read-out: Plant response rating, Velvetleaf): 0% | pest or weed control at 500 g/ha ([7]; pre-emergence, Preemergence, 500 g ai/ha, 0 to 100 scale (0 no effect, 100 complete control), read-out: Plant response rating, Velvetleaf): 10% | plant injury at 125 g/ha (corn (Zea mays); Zea mays, post-emergence, 240 h, Postemergence, 125 g ai/ha, 0 to 100 scale, 0 is no effect, 100 is complete control, read-out: Corn plant response rating): 20% | plant injury at 500 g/ha (corn (Zea mays); Zea mays, post-emergence, 240 h, Postemergence, 500 g ai/ha, visual rating on 0 to 100 scale (0 no effect, 100 complete control), approximately ten days, read-out: Corn plant response rating): 30% | Corn plant response rating (crop injury, 0 = no effect, 100 = complete kill) at 125 g/ha (corn (Zea mays); Zea mays, pre-emergence, 240 h, Preemergence, 125 g ai/ha, 0 to 100 scale where 0 is no effect and 100 is complete control): 0% | Corn plant response rating (crop injury, 0 = no effect, 100 = complete kill) at 500 g/ha (corn (Zea mays); Zea mays, pre-emergence, 240 h, Preemergence, 500 g ai/ha, 0 to 100 scale (0 no effect, 100 complete control)): 0%

Cc1nn(-c2ccc(F)cc2)nc1Oc1cc(C(F)(F)F)ccn1 [Compound 128]
Barnyardgrass plant response rating [1, 8]: 0 | Barnyardgrass plant response rating [1, 9]: 20 | Plant response rating, Barnyardgrass [1, 10]: 0 | Plant response rating, Barnyardgrass [1, 11]: 0 | Crabgrass, Large plant response rating [2, 8]: 10 | Crabgrass, Large plant response rating [2, 9]: 20 | Plant response rating, Crabgrass, Large [2, 10]: 0 | Plant response rating, Crabgrass, Large [2, 11]: 20 | Morningglory plant response rating [3, 8]: 30 | Morningglory plant response rating [3, 9]: 30 | Plant response rating, Morningglory [3, 10]: 0 | Plant response rating, Morningglory [3, 11]: 20 | Wheat plant response rating [4, 8]: 0 | Wheat plant response rating [4, 9]: 0 | Plant response rating, Wheat [4, 10]: 0 | Plant response rating, Wheat [4, 11]: 0 | Pigweed plant response rating [5, 8]: 30 | Pigweed plant response rating [5, 9]: 40 | Plant response rating, Pigweed [5, 10]: 0 | Plant response rating, Pigweed [5, 11]: 0 | Foxtail, Giant plant response rating [6, 8]: 0 | Foxtail, Giant plant response rating [6, 9]: 10 | Plant response rating, Foxtail, Giant [6, 10]: 0 | Plant response rating, Foxtail, Giant [6, 11]: 20 | Velvetleaf plant response rating [7, 8]: 20 | Velvetleaf plant response rating [7, 9]: 30 | Plant response rating, Velvetleaf [7, 10]: 0 | Plant response rating, Velvetleaf [7, 11]: 0 | Corn plant response rating (corn (Zea mays); [8]): 10 | Corn plant response rating (corn (Zea mays); [9]): 10 | Plant response rating, Corn (corn (Zea mays); [10]): 0 | Plant response rating, Corn (corn (Zea mays); [11]): 0
